Measured values as given in article PMC12367851, “In vitro CB1 receptor activity of halogenated indazole synthetic cannabinoid receptor agonists” (Archives of Toxicology, 2025).
Read-outs that look alike come from different tables or passages of the source.

Experiments:
[1] = molecular target: human CB1 receptor (Homo sapiens, UniProt P21554); assay: AequoScreen CB1 assay (intracellular Ca2+ release, CHO-K1 cells, apoaequorin/Gα16); details: for Emax: CHO-K1, read-out: Efficacy (% of JWH-018) Emax; for Efficacy (Emax) Mean Diff: Brown-Forsythe and Welch ANOVA; for fold difference of each other (potency): brominated SCRAs with pent-4-enyl, butyl and pentyl tails; for fold less potent than the butyl (ADB-5′Br-BUTINACA): EC50 ratio, brominated ADB SCRAs with different tails
[2] = molecular target: CB1 receptor; details: β-arrestin 2 recruitment, cited from earlier work
[3] = molecular target: CB1 receptor; set-up: method as in Deventer et al. [2023b]; details: AequoScreen / Ca2+ release assay, ref Deventer et al. [2023b], cited from earlier work
[4] = Compound 1 vs Compound 2 = AB-5’Cl-BUTINACA
[5] = Compound 1 vs Compound 2 = ADB-5’Br-BUTINACA
[6] = Compound 1 vs Compound 2 = MDMB-5’Br-BUTINACA
[7] = Compound 1 vs Compound 2 = ADB-5’Cl-BUTINACA
[8] = Compound 1 vs Compound 2 = MDMB-5’Cl-BUTINACA
[9] = Compound 1 vs Compound 2 = ADB-5’F-BUTINACA
[10] = Compound 1 vs Compound 2 = MDMB-5’F-BUTINACA
[11] = ref Deventer et al. [2023b], read-out: EC50
[12] = Compound 1 vs Compound 2 = ADB-4en-5’Br-PINACA
[13] = Compound 1 vs Compound 2 = ADB-5’Br-FUBINACA
[14] = Compound 1 vs Compound 2 = ADB-5’Br-PINACA
[15] = Compound 1 vs Compound 2 = ADB-BUTINACA
[16] = EC50 ratio vs non-halogenated analog ADB-BUTINACA

Chain of human CB1 receptor (P21554 whole entry): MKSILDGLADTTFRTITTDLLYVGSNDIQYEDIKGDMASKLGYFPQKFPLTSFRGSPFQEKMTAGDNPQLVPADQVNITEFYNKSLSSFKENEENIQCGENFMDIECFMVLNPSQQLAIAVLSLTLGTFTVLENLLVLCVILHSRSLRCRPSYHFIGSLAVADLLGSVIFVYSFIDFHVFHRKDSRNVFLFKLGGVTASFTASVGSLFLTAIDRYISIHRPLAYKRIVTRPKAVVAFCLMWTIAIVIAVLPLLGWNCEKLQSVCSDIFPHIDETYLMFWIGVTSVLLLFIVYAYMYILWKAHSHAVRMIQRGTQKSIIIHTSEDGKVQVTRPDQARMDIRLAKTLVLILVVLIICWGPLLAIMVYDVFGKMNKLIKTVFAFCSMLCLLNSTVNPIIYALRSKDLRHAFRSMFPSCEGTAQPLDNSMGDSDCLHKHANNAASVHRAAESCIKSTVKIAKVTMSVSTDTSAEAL

CCCCn1nc(C(=O)NC(C(N)=O)C(C)C)c2cc(Br)ccc21 (centres unmarked) [AB-5′Br-BUTINACA]
EC50 [1]: 0.0446 µM | Emax [1]: 115% | Efficacy (Emax) Mean Diff [1, 4]: 2.92 | Efficacy (Emax) Mean Diff ([1]; Compound 1 vs Compound 2 = AB-5’F-BUTINACA): 7.90 | Efficacy (Emax) Mean Diff [1, 5]: 5.08 | Efficacy (Emax) Mean Diff [1, 6]: 1.26 | Efficacy (Emax) Mean Diff ([1]; Compound 1 vs Compound 2 = MMB-5’Br-BUTINACA): 9.47

CCCCn1nc(C(=O)NC(C(N)=O)C(C)C)c2cc(Cl)ccc21 (centres unmarked) [AB-5′Cl-BUTINACA]
EC50 [1]: 0.0577 µM | Emax [1]: 112% | Efficacy (Emax) Mean Diff [1, 7]: -0.67 | Efficacy (Emax) Mean Diff [1, 8]: 2.14 | Efficacy (Emax) Mean Diff ([1]; Compound 1 vs Compound 2 = MMB-5’Cl-BUTINACA): 2.74

CCCCn1nc(C(=O)NC(C(N)=O)C(C)C)c2cc(F)ccc21 (centres unmarked) [AB-5′F-BUTINACA]
EC50 [1]: 0.0187 µM | Emax [1]: 107% | Efficacy (Emax) Mean Diff [1, 4]: -4.99 | Efficacy (Emax) Mean Diff [1, 9]: -6.01 | Efficacy (Emax) Mean Diff [1, 10]: -4.12 | Efficacy (Emax) Mean Diff ([1]; Compound 1 vs Compound 2 = MMB-5’F-BUTINACA): 0.24

C=CCCCn1nc(C(=O)NC(C(N)=O)C(C)(C)C)c2cc(Br)ccc21 (centres unmarked) [ADB-4en-5′Br-PINACA, N-(1-amino-3,3-dimethyl-1-oxobutan-2-yl)−5-bromo-1-(pent-4-en-1-yl)−1H-indazole-3-carboxamide]
EC50 [1]: 0.0142 µM | Emax [1]: 111% | Efficacy (Emax) Mean Diff ([1]; Compound 1 vs Compound 2 = MDMB-4en-5’Br-PINACA (also printed MDMB-5’Br-4en-PINACA)): -8.94 | fold difference of each other (potency) [1]: ≤ 1.4 fold

CCCCn1nc(C(=O)NC(C(N)=O)C(C)(C)C)c2cc(Br)ccc21 (centres unmarked) [ADB-5′Br-BUTINACA, N-[1-amino-3,3-dimethyl-1-oxobutan-2-yl]−5-bromo-1-butyl-1H-indazole-3-carboxamide]
EC50 [2, 11]: 0.0821 µM | EC50 ([3]; read-out: EC50): 0.0125 µM | EC50 [1]: 0.018 µM | Emax [1]: 110% | Efficacy (Emax) Mean Diff [1, 12]: -1.26 | Efficacy (Emax) Mean Diff [1, 13]: -2.30 | Efficacy (Emax) Mean Diff [1, 14]: 1.84 | Efficacy (Emax) Mean Diff [1, 7]: -2.84 | Efficacy (Emax) Mean Diff [1, 9]: -3.19 | Efficacy (Emax) Mean Diff [1, 15]: -15.66 | Efficacy (Emax) Mean Diff [1, 6]: -3.82 | fold more potent than ADB-BUTINACA [1, 16]: 1.2 fold | fold difference of each other (potency) [1]: ≤ 1.4 fold

CC(C)(C)C(NC(=O)c1nn(Cc2ccc(F)cc2)c2ccc(Br)cc12)C(N)=O (centres unmarked) [ADB-5′Br-FUBINACA]
EC50 [1]: 0.0421 µM | Emax [1]: 112% | Efficacy (Emax) Mean Diff [1, 12]: 1.04 | Efficacy (Emax) Mean Diff [1, 14]: 4.13 | fold less potent than the butyl (ADB-5′Br-BUTINACA) [1]: 2.3 fold

CC(C)(C)C(NC(=O)c1n[nH]c2ccc(Br)cc12)C(N)=O (centres unmarked) [ADB-5′Br-INACA, N-[1-amino-3,3-dimethyl-1-oxobutan-2-yl]−5-bromo-1H-indazole-3-carboxamide]
EC50 [1]: 2.29 µM | Emax [1]: 111% | Efficacy (Emax) Mean Diff [1, 12]: -0.21 | Efficacy (Emax) Mean Diff [1, 5]: 1.04 | Efficacy (Emax) Mean Diff [1, 13]: -1.25 | Efficacy (Emax) Mean Diff [1, 14]: 2.88 | fold weaker in potency than JWH-018 ([1]; EC50 ratio vs JWH-018): 100 fold | fold less potent than the butyl (ADB-5′Br-BUTINACA) [1]: 127 fold

CCCCCn1nc(C(=O)NC(C(N)=O)C(C)(C)C)c2cc(Br)ccc21 (centres unmarked) [ADB-5′Br-PINACA, N-(1-amino-3,3-dimethyl-1-oxobutan-2-yl)−5-bromo-1-pentyl-1H-indazole-3-carboxamide]
EC50 [1]: 0.0198 µM | Emax [1]: 108% | Efficacy (Emax) Mean Diff [1, 12]: -3.10 | fold difference of each other (potency) [1]: ≤ 1.4 fold

CCCCn1nc(C(=O)NC(C(N)=O)C(C)(C)C)c2cc(Cl)ccc21 (centres unmarked) [ADB-5′Cl-BUTINACA]
EC50 [1]: 0.0301 µM | Emax [1]: 113% | Efficacy (Emax) Mean Diff [1, 15]: -12.82 | Efficacy (Emax) Mean Diff [1, 8]: 2.80 | fold less potent than ADB-BUTINACA [1, 16]: 1.4 fold

CCCCn1nc(C(=O)NC(C(N)=O)C(C)(C)C)c2cc(F)ccc21 (centres unmarked) [ADB-5′F-BUTINACA]
EC50 [2, 11]: 0.0288 µM | EC50 ([3]; read-out: EC50): 0.0183 µM | EC50 [1]: 0.0144 µM | Emax [1]: 113% | Efficacy (Emax) Mean Diff [1, 7]: 0.36 | Efficacy (Emax) Mean Diff [1, 15]: -12.47 | Efficacy (Emax) Mean Diff [1, 10]: 1.89 | fold more potent than ADB-BUTINACA [1, 16]: 1.5 fold

CCCCn1nc(C(=O)NC(C(N)=O)C(C)(C)C)c2ccccc21 (centres unmarked) [ADB-BUTINACA, reference compound]
EC50 ([2]; ref Sparkes et al. [2022], read-out: EC50): 0.00772 µM | EC50 ([3]; read-out: EC50): 0.0115 µM | EC50 [1]: 0.0215 µM | Emax [1]: 126%

CC(C)(C)[C@H](NC(=O)c1n[nH]c2ccccc12)C(N)=O [ADB-INACA, reference compound]
EC50 ([2]; ref Deventer et al. [2023b]): did not reach saturation | EC50 [3]: did not reach saturation
